For 34 molecules, Ki results are on record in patent EP1276722B1, “NAPHTHAMIDINE UROKINASE INHIBITORS” (ABBOTT LABORATORIES, priority 2000, dated 2001).

Structures are written as SMILES.

The target of the test is T1, urokinase enzyme Abbokinase (Homo sapiens, UniProt P00749).
T1 construct: purchased Abbott Laboratories, Abbott Park, IL
Put plainly: Inhibition of urokinase on chromogenic substrate S-2444. The test is classed as biochemical. To be noted: read-out: Ki.
Experimental: Four concentrations were chosen, then 5 µl of each were diluted to a total assay volume of 200 µL. […] Several vials were reconstituted as directed on the vial, aliquoted, and stored frozen The enzyme was further diluted in assay buffer and 10 µL was used in the assay. Enzyme concentration in the assay was 2-3 nM. The assay was performed as follows: 175 µL of buffer was pipetted inta the polystyrene plate, and 5 µL solution of a compound of this invention in DMSO was added. The mixture was vortexed, treated with 10 µL of enzyme in buffer, vortexed, treated with 10 µL of substrate in water, and vortexed. […] The Spectromax® calculated the reaction rates which were used to calculate percent inhibition of the compounds of this invention versus the reaction rate of the enzyme in the absence of any inhibitor. The Ki's of the inhibitors were calculated from the percent inhibition and previously established Km.
`CC(C)C1c2cc(C3CC3c3ccc4cc(C(=N)N)ccc4c3)ccc2CCN1Cc1ccccc1` (stereo not shown) [Example 19, 6-(2-(2-benzyl-1-isopropyl-1,2,3,4-tetrahydro-7-isoquinolinyl)cyclopropyl)-2-naphthalenecarboximidamide]: the inhibition constant (Ki) came out at 144 nM. In the case of `CCC1CN(C(C)=O)Cc2ccc(C3CC3c3ccc4cc(C(=N)N)ccc4c3)cc21` (stereo not shown) [Example 52, 6-(2-(2-acetyl-4-ethyl-1,2,3,4-tetrahydro-6-isoquinolinyl)cyclopropyl)-2-naphthalenecarboximidamide] it was 530 nM; in that of `CC(C)C1c2cc(C3CC3c3ccc4cc(C(=N)N)ccc4c3)ccc2CCN1Cc1cccnc1` (stereo not shown) [Example 21, 6-(2-(1-isopropyl-2-(3-pyridinylmethyl)-1,2,3,4-tetrahydro-7-isoquinolinyl)cyclopropyl)-2-naphthalenecarboximidamide], 84 nM; in that of `N=C(N)c1ccc2cc(C3CC3c3ccc4c(c3)C(C3CCCCC3)=NCC4)ccc2c1` (stereo not shown) [Example 9, 6-(2-(1-cyclohexyl-3,4-dihydro-7-isoquinolinyl)cyclopropyl)-2-naphthalenecarboximidamide], 50 nM. For `COC(=O)N1CCc2ccc(C=Cc3ccc4cc(C(=N)N)ccc4c3)cc2C1C(C)C` (stereo not shown) [Example 17, methyl 7-(2-(6-(amino(imino)methyl)-2-naphthyl)ethenyl)-1-isopropyl-3,4-dihydro-2(1H)-isoquinolinecarboxylate] the value was 250 nM. For `COc1ccccc1-c1cc(C2CC2c2ccc3c(c2)C(C(C)C)N(C)CC3)cc2ccc(C(=N)N)cc12` (stereo not shown) [Example 40, 6-(2-(1-isopropyl-2-methyl-1,2,3,4-tetrahydro-7-isoquinolinyl)cyclopropyl)-8-(2-methoxyphenyl)-2-naphthalenecarboximidamide] the value was 810 nM; for `COCC=Cc1cc(C2CC2c2ccc3c(c2)C(C(C)C)=NCC3)cc2ccc(C(=N)N)cc12` (stereo not shown) [Example 4, 6-(2-(1-isopropyl-3,4-dihydro-7-isoquinolinyl)cyclopropyl)-8-(3-methoxy-1-propenyl)-2-naphthalenecarboximidamide], 59 nM. Consider `CC1c2cc(C3CC3c3ccc4cc(C(=N)N)ccc4c3)ccc2CCN1C` (stereo not shown) [Example 30, 6-(2-(1,2-dimethyl-1,2,3,4-tetrahydro-7-isoquinolinyl)cyclopropyl)-2-naphthalenecarboximidamide], for which the Ki came out at 278 nM. For `CCC1CN=C(C(C)C)c2ccc(C3CC3c3ccc4cc(C(=N)N)ccc4c3)cc21` (stereo not shown) [Example 54, 6-(2-(4-ethyl-1-isopropyl-3,4-dihydro-6-isoquinolinyl)cyclopropyl)-2-naphthalenecarboximidamide] the value was 343 nM. For `CC(C)/C=C/c1cc(C2CC2c2ccc3c(c2)C(C(C)C)N(C)CC3)cc2ccc(C(=N)N)cc12` (stereo not shown) [Example 37, 6-(2-(1-isopropyl-2-methyl-1,2,3,4-tetrahydro-7-isoquinolinyl)cyclopropyl)-8-((1E)-3-methyl-1-butenyl)-2-naphthalenecarboximidamide] the value was 10 nM; for `CC(C)C1c2cc(C3CC3c3cc(-c4ccoc4)c4cc(C(=N)N)ccc4c3)ccc2CCN1C` (stereo not shown) [Example 3, 8-(3-furyl)-6-(2-(1-isopropyl-2-methyl-1,2,3,4-tetrahydro-7-isoquinolinyl)cyclopropyl)-2-naphthalenecarboximidamide], 25 nM. Consider `CC(C)/C=C/c1cc(C2CC2c2ccc3c(c2)C(C(C)C)=NCC3)cc2ccc(C(=N)N)cc12` (stereo not shown) [Example 8, 6-(2-(1-isopropyl-3,4-dihydro-7-isoquinolinyl)cyclopropyl)-8-((1E)-3-methyl-1-butenyl)-2-naphthalenecarboximidamide], for which the inhibition constant Ki was determined as 21 nM. For `CC(C)C1=NCCc2ccc(C3CC3c3cc(Br)c4cc(C(=N)N)ccc4c3)cc21` (stereo not shown) [Example 35, 8-bromo-6-(2-(1-isopropyl-3,4-dihydro-7-isoquinolinyl)cyclopropyl)-2-naphthalenecarboximidamide] the value was 128 nM; for `CCCC1c2cc(C3CC3c3ccc4cc(C(=N)N)ccc4c3)ccc2CCN1C` (stereo not shown) [Example 11, 6-(2-(2-methyl-1-propyl-1,2,3,4-tetrahydro-7-isoquinolinyl)cyclopropyl)-2-naphthalenecarboximidamide], 128 nM; for `CC(C)C1=NCCc2ccc(C3CC3c3cc(-c4ccoc4)c4cc(C(=N)N)ccc4c3)cc21` (stereo not shown) [Example 1, 8-(3-furyl)-6-(2-(1-isopropyl-3,4-dihydro-7-isoquinolinyl)cyclopropyl)-2-naphthalenecarboximidamide], 41 nM. For `CC(C)C1=NCCc2ccc(C=Cc3cc(Br)c4cc(C(=N)N)ccc4c3)cc21` [Example 22, 8-bromo-6-(2-(1-isopropyl-3,4-dihydro-7-isoquinolinyl)ethenyl)-2-naphthalenecarboximidamide] the value was 291 nM; for `CCC1CNCc2ccc(C=Cc3ccc4cc(C(=N)N)ccc4c3)cc21` (stereo not shown) [Example 50, 6-(2-(4-ethyl-1,2,3,4-tetrahydro-6-isoquinolinyl)ethenyl)-2-naphthalenecarboximidamide], 43 nM; for `CC(C)C1c2cc(C3CC3c3ccc4cc(C(=N)N)ccc4c3)ccc2CCN1C(C)C` (stereo not shown) [Example 27, 6-(2-(1,2-diisopropyl-1,2,3,4-tetrahydro-7-isoquinolinyl)cyclopropyl)-2-naphthalenecarboximidamide], 130 nM. On to `CC(C)C1c2cc(C=Cc3ccc4cc(C(=N)N)ccc4c3)ccc2CCN1C` (stereo not shown) [Example 16, 6-(2-(1-isopropyl-2-methyl-1,2,3,4-tetrahydro-7-isoquinolinyl)ethenyl)-2-naphthalenecarboximidamide], for which the inhibition constant Ki came out at 120 nM. `CN1CCc2ccc(C3CC3c3cc(Br)c4cc(C(=N)N)ccc4c3)cc2C1C1CCCCC1` (stereo not shown) [Example 57, 8-bromo-6-(2-(1-cyclohexyl-2-methyl-1,2,3,4-tetrahydro-7-isoquinolinyl)cyclopropyl)-2-naphthalenecarboximidamide]: the Ki came out at 25 nM. Regarding `N=C(N)c1ccc2cc(C3CC3c3ccc4c(c3)CCNC4)ccc2c1` (stereo not shown) [Example 46, 6-(2-(1,2,3,4-tetrahydro-6-isoquinolinyl)cyclopropyl)-2-naphthalenecarboximidamide], the Ki amounted to 180 nM. In the case of `CC(C)/C=C/c1cc(C2CC2c2ccc3c(c2)C(C2CCCCC2)N(C)CC3)cc2ccc(C(=N)N)cc12` (stereo not shown) [Example 59, 6-(2-(1-cyclohexyl-2-methyl-1,2,3,4-tetrahydro-7-isoquinolinyl)cyclopropyl)-8-((1E)-3-methyl-1-butenyl)-2-naphthalenecarboximidamide] it was 10 nM; in that of `CCC1CNCc2ccc(C3CC3c3ccc4cc(C(=N)N)ccc4c3)cc21` (stereo not shown) [Example 48, 6-(2-(4-ethyl-1,2,3,4-tetrahydro-6-isoquinolinyl)cyclopropyl)-2-naphthalenecarboximidamide], 29 nM; in that of `CCC1(CC)CN=C(C(C)C)c2ccc(C3CC3c3ccc4cc(C(=N)N)ccc4c3)cc21` (stereo not shown) [Example 31, 6-(2-(4,4-diethyl-1-isopropyl-3,4-dihydro-6-isoquinolinyl)cyclopropyl)-2-naphthalenecarboximidamide], 350 nM. For `CC(C)C1NCCc2ccc(C=Cc3ccc4cc(C(=N)N)ccc4c3)cc21` (stereo not shown) [Example 13, 6-(2-(1-isopropyl-1,2,3,4-tetrahydro-7-isoquinolinyl)ethenyl)-2-naphthalenecarboximidamide] the value was 260 nM; for `CCC1CN=C(C(C)C)c2ccc(C=Cc3ccc4cc(C(=N)N)ccc4c3)cc21` (stereo not shown) [Example 55, 6-(2-(4-ethyl-1-isopropyl-3,4-dihydro-6-isoquinolinyl)ethenyl)-2-naphthalenecarboximidamide], 255 nM; for `CCC1CN(Cc2ccccc2)Cc2ccc(C3CC3c3ccc4cc(C(=N)N)ccc4c3)cc21` (stereo not shown) [Example 49, 6-(2-(2-benzyl-4-ethyl-1,2,3,4-tetrahydro-6-isoquinolinyl)cyclopropyl)-2-naphthalenecarboximidamide], 278 nM. For `CC(C)C1NCCc2ccc(C3CC3c3ccc4cc(C(=N)N)ccc4c3)cc21` (stereo not shown) [Example 20, 6-(2-(1-isopropyl-1,2,3,4-tetrahydro-7-isoquinolinyl)cyclopropyl)-2-naphthalenecarboximidamide] the value was 84 nM; for `C=CCN1CCc2ccc(C3CC3c3ccc4cc(C(=N)N)ccc4c3)cc2C1C(C)C` (stereo not shown) [Example 25, 6-(2-(2-allyl-1-isopropyl-1,2,3,4-tetrahydro-7-isoquinolinyl)cyclopropyl)-2-naphthalenecarboximidamide], 63 nM. Regarding `N=C(N)c1ccc2cc(C3CC3c3ccc4c(c3)C(C3CCCCC3)=NCC4)cc(Br)c2c1` (stereo not shown) [Example 56, 8-bromo-6-(2-(1-cyclohexyl-3,4-dihydro-7-isoquinolinyl)cyclopropyl)-2-naphthalenecarboximidamide], the Ki stood at 18 nM. As to `CC(C)C1=NCCc2ccc(C3CC3c3cc(C4CCOC4)c4cc(C(=N)N)ccc4c3)cc21` (stereo not shown) [Example 7, 6-(2-(1-isopropyl-3,4-dihydro-7-isoquinolinyl)cyclopropyl)-8-tetrahydro-3-furanyl-2-naphthalenecarboximidamide], the inhibition constant (Ki) is 45 nM. In the case of `CCC1(CC)CN(C)C(C(C)C)c2ccc(C3CC3c3ccc4cc(C(=N)N)ccc4c3)cc21` (stereo not shown) [Example 32, 6-(2-(4,4-diethyl-1-isopropyl-2-methyl-1,2,3,4-tetrahydro-6-isoquinolinyl)cyclopropyl)-2-naphthalenecarboximidamide] it was 350 nM.

With `CC(C)C1c2cc(C3CC3c3cc(C4CC4)c4cc(C(=N)N)ccc4c3)ccc2CCN1C` (stereo not shown) [Example 39, 8-cyclopropyl-6-(2-(1-isopropyl-2-methyl-1,2,3,4-tetrahydro-7-isoquinolinyl)cyclopropyl)-2-naphthalenecarboximidamide], the inhibition constant (Ki) worked out at 37 nM.

As for `CCC1CN(C)Cc2ccc(C3CC3c3ccc4cc(C(=N)N)ccc4c3)cc21` (stereo not shown) [Example 51, 6-(2-(4-ethyl-2-methyl-1,2,3,4-tetrahydro-6-isoquinolinyl)cyclopropyl)-2-naphthalenecarboximidamide], the Ki came to 123 nM.
